Data: PMC3961306, “Comparison of the Cancer Gene Targeting and Biochemical Selectivities of All Targeted Kinase Inhibitors Approved for Clinical Use” (PLoS ONE, 2014)
Where two headings read alike, the source gives them in different places.

Key:
[1] = system: forty-four human cancer cell lines; experiment: Cell proliferation assay (ATPlite, 72 hours) in the 44 cell line Oncolines panel; assay type: cell-based; conditions: Homo sapiens
[2] = target: panel of more than 300 wild-type and mutant kinases (313 kinase panel) (Homo sapiens, UniProt P00519); experiment: Kinase profiling in a biochemical assay panel (mobility shift assays and ELISA), %-inhibition at 1 μM; selectivity entropy; conditions: kinase ABL; 1 μM compound
[3] = target: panel of more than 300 wild-type and mutant kinases (313 kinase panel) (Homo sapiens, UniProt P00519, E255K); experiment: as above; conditions: kinase ABL(E255K); 1 μM compound
Sequence of panel of more than 300 wild-type and mutant kinases (313 kinase panel) (Homo sapiens, UniProt P00519, E255K) (P00519 whole entry E255K): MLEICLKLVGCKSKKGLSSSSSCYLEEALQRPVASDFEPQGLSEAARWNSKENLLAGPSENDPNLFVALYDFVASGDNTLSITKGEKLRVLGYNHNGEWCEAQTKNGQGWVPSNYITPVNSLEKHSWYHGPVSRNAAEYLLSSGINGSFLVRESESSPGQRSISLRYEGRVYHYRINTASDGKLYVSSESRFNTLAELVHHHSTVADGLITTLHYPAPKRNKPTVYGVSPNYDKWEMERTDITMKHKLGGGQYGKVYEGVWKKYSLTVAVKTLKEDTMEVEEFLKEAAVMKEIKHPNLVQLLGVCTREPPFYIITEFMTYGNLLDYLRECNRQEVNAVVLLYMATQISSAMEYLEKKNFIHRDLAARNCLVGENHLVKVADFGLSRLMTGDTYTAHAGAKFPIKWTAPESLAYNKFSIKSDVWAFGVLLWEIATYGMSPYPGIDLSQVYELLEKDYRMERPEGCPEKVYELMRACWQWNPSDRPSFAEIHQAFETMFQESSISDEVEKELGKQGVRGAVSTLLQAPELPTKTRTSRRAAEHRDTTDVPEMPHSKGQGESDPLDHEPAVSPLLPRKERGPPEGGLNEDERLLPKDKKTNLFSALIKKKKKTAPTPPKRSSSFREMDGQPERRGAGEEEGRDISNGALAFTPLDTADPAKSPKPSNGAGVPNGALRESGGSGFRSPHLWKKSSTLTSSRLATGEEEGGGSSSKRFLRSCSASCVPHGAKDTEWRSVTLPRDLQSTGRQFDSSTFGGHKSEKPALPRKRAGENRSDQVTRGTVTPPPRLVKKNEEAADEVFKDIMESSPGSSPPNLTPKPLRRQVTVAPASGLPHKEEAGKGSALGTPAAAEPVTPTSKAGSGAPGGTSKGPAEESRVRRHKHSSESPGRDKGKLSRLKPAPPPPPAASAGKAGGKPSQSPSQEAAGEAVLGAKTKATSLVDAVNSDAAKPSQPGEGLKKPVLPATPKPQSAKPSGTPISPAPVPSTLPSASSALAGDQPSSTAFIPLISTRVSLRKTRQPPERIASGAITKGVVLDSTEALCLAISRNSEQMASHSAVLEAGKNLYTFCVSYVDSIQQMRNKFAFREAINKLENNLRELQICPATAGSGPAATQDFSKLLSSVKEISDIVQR

[4] = target: panel of more than 300 wild-type and mutant kinases (313 kinase panel) (Homo sapiens, UniProt P00533); experiment: as above; conditions: kinase EGFR; compound at 1 μM
[5] = target: panel of more than 300 wild-type and mutant kinases (313 kinase panel) (Homo sapiens, UniProt P00533, L858R); experiment: as above; conditions: kinase EGFR(L858R); compound at 1 μM
[6] = target: panel of more than 300 wild-type and mutant kinases (313 kinase panel) (Homo sapiens, UniProt P00533, L858R/T790M); experiment: as above; conditions: kinase EGFR(T790M/L858R); compound at 1 μM
[7] = target: panel of more than 300 wild-type and mutant kinases (313 kinase panel) (Homo sapiens, UniProt P00533, L861Q); experiment: as above; conditions: kinase EGFR(L861Q); compound at 1 μM
Sequence of panel of more than 300 wild-type and mutant kinases (313 kinase panel) (Homo sapiens, UniProt P00533, L861Q) (P00533 25-1210 L861Q): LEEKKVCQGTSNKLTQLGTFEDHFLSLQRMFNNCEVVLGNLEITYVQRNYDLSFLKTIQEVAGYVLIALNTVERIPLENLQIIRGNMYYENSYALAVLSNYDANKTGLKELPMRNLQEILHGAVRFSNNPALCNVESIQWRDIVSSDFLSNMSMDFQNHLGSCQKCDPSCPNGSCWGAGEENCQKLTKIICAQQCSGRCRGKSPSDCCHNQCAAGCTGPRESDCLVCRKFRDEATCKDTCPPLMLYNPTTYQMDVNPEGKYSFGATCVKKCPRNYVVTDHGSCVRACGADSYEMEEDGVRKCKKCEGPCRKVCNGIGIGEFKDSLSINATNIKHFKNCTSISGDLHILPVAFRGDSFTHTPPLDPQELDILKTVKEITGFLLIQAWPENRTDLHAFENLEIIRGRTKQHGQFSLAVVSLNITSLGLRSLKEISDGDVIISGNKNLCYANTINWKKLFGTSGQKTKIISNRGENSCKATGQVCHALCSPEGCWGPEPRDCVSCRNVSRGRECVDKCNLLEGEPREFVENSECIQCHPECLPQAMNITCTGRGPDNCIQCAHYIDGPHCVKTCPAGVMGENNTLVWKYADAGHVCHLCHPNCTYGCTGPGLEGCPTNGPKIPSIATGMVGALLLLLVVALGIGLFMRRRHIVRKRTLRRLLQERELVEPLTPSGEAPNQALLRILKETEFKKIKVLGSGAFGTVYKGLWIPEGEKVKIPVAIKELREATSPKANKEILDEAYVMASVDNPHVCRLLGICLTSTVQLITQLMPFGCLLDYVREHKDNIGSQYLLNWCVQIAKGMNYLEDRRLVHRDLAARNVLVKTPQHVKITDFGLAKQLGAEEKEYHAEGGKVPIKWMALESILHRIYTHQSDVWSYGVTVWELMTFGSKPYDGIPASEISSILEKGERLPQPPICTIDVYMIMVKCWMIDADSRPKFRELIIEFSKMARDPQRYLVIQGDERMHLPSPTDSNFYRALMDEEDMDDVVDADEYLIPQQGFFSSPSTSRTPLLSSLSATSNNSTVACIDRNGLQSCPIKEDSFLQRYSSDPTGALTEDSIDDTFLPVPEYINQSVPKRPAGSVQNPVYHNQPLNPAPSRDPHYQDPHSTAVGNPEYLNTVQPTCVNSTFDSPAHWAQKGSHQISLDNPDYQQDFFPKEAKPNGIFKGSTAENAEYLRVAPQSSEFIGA

[8] = target: panel of more than 300 wild-type and mutant kinases (313 kinase panel) (Homo sapiens, UniProt P00533, T790M); experiment: as above; conditions: kinase EGFR(T790M); compound at 1 μM
Sequence of panel of more than 300 wild-type and mutant kinases (313 kinase panel) (Homo sapiens, UniProt P00533, T790M) (P00533 25-1210 T790M): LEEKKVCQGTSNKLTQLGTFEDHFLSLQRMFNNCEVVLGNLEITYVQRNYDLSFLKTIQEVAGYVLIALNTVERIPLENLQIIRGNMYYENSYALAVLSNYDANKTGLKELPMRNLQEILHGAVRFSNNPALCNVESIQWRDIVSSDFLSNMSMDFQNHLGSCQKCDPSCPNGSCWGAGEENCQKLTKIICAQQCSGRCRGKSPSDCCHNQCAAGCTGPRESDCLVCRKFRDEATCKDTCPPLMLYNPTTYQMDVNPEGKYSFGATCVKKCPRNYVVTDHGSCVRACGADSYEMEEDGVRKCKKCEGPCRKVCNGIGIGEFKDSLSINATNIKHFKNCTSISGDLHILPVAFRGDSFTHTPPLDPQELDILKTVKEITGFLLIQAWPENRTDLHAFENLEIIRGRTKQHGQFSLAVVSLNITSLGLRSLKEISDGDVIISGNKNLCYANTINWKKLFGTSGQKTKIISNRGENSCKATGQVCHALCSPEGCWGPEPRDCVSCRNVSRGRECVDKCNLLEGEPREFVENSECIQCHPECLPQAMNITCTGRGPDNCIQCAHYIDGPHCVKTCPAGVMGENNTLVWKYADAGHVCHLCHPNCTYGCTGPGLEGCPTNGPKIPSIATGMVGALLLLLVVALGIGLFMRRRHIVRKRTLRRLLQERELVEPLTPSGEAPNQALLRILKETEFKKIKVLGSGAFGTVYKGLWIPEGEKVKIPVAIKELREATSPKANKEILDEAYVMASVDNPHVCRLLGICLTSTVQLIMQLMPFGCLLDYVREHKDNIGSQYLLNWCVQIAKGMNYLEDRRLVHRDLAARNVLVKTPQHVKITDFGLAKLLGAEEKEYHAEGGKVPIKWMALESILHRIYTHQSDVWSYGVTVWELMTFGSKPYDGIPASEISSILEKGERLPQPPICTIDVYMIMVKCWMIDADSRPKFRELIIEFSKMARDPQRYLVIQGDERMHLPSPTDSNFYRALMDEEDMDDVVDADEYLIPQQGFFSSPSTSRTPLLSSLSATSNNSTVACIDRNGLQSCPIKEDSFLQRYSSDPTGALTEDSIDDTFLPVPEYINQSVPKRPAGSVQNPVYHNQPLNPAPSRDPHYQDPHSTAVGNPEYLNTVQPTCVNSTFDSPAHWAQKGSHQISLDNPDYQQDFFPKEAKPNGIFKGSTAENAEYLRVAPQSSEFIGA

[9] = target: panel of more than 300 wild-type and mutant kinases (313 kinase panel) (Homo sapiens, UniProt P07947, T348I); experiment: as above; conditions: kinase YES(T348I); compound at 1 μM
[10] = target: panel of more than 300 wild-type and mutant kinases (313 kinase panel) (Homo sapiens, UniProt P09619); experiment: as above; conditions: kinase PDGFRβ; 1 μM
[11] = target: panel of more than 300 wild-type and mutant kinases (313 kinase panel) (Homo sapiens, UniProt P11362, V561M); experiment: as above; conditions: kinase FGFR1(V561M); compound at 1 μM
[12] = target: panel of more than 300 wild-type and mutant kinases (313 kinase panel) (Homo sapiens, UniProt P15056); experiment: as above; conditions: kinase BRAF; 1 μM compound
[13] = target: panel of more than 300 wild-type and mutant kinases (313 kinase panel) (Homo sapiens, UniProt P22612); experiment: as above; conditions: kinase PKACγ; 1 μM
[14] = target: panel of more than 300 wild-type and mutant kinases (313 kinase panel) (Homo sapiens, UniProt P35968); experiment: as above; conditions: kinase KDR; compound at 1 μM
[15] = target: panel of more than 300 wild-type and mutant kinases (313 kinase panel) (Homo sapiens, UniProt Q9UM73, R1275Q); experiment: as above; conditions: kinase ALK(R1275Q); 1 μM compound
Sequence of panel of more than 300 wild-type and mutant kinases (313 kinase panel) (Homo sapiens, UniProt Q9UM73, R1275Q) (Q9UM73 19-1620 R1275Q): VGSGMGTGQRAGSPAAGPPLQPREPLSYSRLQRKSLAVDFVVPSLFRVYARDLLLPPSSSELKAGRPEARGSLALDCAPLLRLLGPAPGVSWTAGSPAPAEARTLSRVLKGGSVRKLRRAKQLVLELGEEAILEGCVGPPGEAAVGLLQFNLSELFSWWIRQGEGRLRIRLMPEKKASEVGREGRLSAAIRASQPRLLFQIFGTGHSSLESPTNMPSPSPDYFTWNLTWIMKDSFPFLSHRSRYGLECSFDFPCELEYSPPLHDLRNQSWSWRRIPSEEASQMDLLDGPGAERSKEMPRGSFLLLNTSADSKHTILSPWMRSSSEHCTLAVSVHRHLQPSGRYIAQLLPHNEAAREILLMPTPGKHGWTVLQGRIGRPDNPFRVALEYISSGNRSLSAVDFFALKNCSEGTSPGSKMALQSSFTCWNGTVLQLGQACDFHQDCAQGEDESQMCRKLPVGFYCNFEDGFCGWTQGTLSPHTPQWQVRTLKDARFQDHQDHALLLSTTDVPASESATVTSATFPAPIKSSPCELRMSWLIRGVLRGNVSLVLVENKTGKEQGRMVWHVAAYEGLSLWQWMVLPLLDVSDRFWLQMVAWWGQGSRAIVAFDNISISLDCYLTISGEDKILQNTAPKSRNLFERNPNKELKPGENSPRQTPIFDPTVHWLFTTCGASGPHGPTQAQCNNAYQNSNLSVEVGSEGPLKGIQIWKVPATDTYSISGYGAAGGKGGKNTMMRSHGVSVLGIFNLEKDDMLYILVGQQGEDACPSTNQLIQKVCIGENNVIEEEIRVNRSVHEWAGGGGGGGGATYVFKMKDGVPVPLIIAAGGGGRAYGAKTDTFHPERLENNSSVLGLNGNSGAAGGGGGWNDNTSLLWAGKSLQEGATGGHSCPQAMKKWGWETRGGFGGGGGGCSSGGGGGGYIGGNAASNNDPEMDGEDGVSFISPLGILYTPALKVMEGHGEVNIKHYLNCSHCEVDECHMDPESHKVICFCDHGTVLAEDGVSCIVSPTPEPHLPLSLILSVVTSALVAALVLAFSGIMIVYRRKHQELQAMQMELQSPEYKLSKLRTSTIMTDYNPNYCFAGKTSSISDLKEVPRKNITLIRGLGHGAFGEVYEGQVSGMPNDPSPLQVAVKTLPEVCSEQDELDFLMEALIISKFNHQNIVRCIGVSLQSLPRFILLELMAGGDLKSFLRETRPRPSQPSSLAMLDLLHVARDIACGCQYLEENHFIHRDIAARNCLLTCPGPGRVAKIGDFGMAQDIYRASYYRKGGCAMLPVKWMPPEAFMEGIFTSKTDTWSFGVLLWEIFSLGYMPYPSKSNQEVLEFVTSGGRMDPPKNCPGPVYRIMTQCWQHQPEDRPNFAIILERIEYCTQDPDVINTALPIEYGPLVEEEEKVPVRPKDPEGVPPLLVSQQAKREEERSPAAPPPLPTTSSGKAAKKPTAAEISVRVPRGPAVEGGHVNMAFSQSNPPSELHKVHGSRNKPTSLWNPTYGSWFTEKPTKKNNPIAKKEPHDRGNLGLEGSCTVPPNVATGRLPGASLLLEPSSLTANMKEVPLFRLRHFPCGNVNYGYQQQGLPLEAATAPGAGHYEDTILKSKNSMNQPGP

[16] = A 172, read-out: cell panel IC50, A-172
[17] = A204, cell line A-204, read-out: cell panel IC50, A-204
[18] = A498, read-out: cell panel IC50, A-498
[19] = A549, read-out: cell panel IC50, A-549
[20] = A-375, cell line A375, read-out: cell panel IC50, A375
[21] = A-427, read-out: cell panel IC50, A-427
[22] = AU565, read-out: cell panel IC50, AU-565
[23] = BT-549, read-out: cell panel IC50, BT-549
[24] = HCT-116, read-out: cell panel IC50, HCT-116
[25] = K562, read-out: cell panel IC50, K-562
[26] = LS174T, read-out: cell panel IC50, LS 174T
[27] = SHP77, cell line SHP-77, read-out: cell panel IC50, SHP-77
[28] = SW-620, cell line SW620, read-out: cell panel IC50, SW620
[29] = U2OS, cell line U-2 OS, read-out: cell panel IC50, U-2 OS
[30] = cell line J82, read-out: cell panel IC50, J82
[31] = cell line PA-1, read-out: cell panel IC50, PA-1
[32] = cell line SJCRH30, read-out: cell panel IC50, SJCRH30
[33] = cell line SR, read-out: cell panel IC50, SR
[34] = U-87 MG cell line, ATPlite, 72 hours, read-out: IC50 in cell proliferation assay (table S5 cellpanel data)
[35] = cell line 769-P, read-out: cell panel IC50, 769-P
[36] = cell line 786-0, read-out: cell panel IC50, 786-0
[37] = cell line ACHN, read-out: cell panel IC50, ACHN
[38] = cell line AN3 CA, read-out: cell panel IC50, AN3 CA
[39] = cell line BT-20, read-out: cell panel IC50, BT-20
[40] = cell line BxPC-3, read-out: cell panel IC50, BxPC-3
[41] = cell line C-33 A, read-out: cell panel IC50, C-33 A
[42] = cell line CAL 27, read-out: cell panel IC50, CAL 27
[43] = cell line CCRF-CEM, read-out: cell panel IC50, CCRF-CEM
[44] = cell line DLD-1, read-out: cell panel IC50, DLD-1
[45] = cell line FaDu, read-out: cell panel IC50, FaDu
[46] = cell line HCT-15, read-out: cell panel IC50, HCT-15
[47] = cell line Hs 578T, read-out: cell panel IC50, Hs 578T
[48] = cell line Jurkat E6.1, read-out: cell panel IC50, Jurkat E6.1
[49] = cell line LoVo, read-out: cell panel IC50, LoVo
[50] = cell line MG-63, read-out: cell panel IC50, MG-63
[51] = cell line MOLT-4, read-out: cell panel IC50, MOLT-4
[52] = cell line MeWo, read-out: cell panel IC50, MeWo
[53] = cell line NCI-H82, read-out: cell panel IC50, NCI-H82
[54] = cell line NCI-H460, read-out: cell panel IC50, NCI-H460
[55] = cell line OVCAR-3, read-out: cell panel IC50, OVCAR-3
[56] = cell line RPMI-7951, read-out: cell panel IC50, RPMI-7951
[57] = cell line SK-N-AS, read-out: cell panel IC50, SK-N-AS
[58] = cell line SW48, read-out: cell panel IC50, SW48
[59] = cell line SW480, read-out: cell panel IC50, SW480

CCCS(=O)(=O)Nc1ccc(F)c(C(=O)c2c[nH]c3ncc(-c4ccc(Cl)cc4)cc23)c1F [vemurafenib]
IC50 [1, 16]: > 31.6 µM | IC50 [1, 17]: > 31.6 µM | IC50 [1, 18]: 20.6 µM | IC50 [1, 19]: 29.2 µM | IC50 [1, 20]: 3.98 µM | IC50 [1, 21]: > 31.6 µM | IC50 [1, 22]: > 31.6 µM | IC50 [1, 23]: 26.9 µM | IC50 [1, 24]: > 31.6 µM | IC50 [1, 25]: 29.9 µM | IC50 [1, 26]: > 31.6 µM | IC50 [1, 27]: > 31.6 µM | IC50 [1, 28]: 31.6 µM | IC50 [1, 29]: > 31.6 µM | IC50 [1, 30]: > 31.6 µM | IC50 [1, 31]: 10.3 µM | IC50 [1, 32]: > 31.6 µM | IC50 [1, 33]: 8.86 µM | IC50 [1, 34]: > 31.6 µM | IC50 [1, 35]: > 31.6 µM | IC50 [1, 36]: 22.6 µM | IC50 [1, 37]: 24 µM | IC50 [1, 38]: > 31.6 µM | IC50 [1, 39]: > 31.6 µM | IC50 [1, 40]: 14.2 µM | IC50 [1, 41]: > 31.6 µM | IC50 [1, 42]: > 31.6 µM | IC50 [1, 43]: 23 µM | IC50 [1, 44]: > 31.6 µM | IC50 [1, 45]: > 31.6 µM | IC50 [1, 46]: 30.6 µM | IC50 [1, 47]: 24.8 µM | IC50 [1, 48]: 27.1 µM | IC50 [1, 49]: 31.3 µM | IC50 [1, 50]: > 31.6 µM | IC50 [1, 51]: 31.1 µM | IC50 [1, 52]: > 31.6 µM | IC50 [1, 53]: 30.4 µM | IC50 [1, 54]: 30.4 µM | IC50 [1, 55]: > 31.6 µM | IC50 [1, 56]: 20.9 µM | IC50 [1, 57]: > 31.6 µM | IC50 [1, 58]: > 31.6 µM | IC50 [1, 59]: 22.5 µM | %-inhibition, ABL [2]: 15% | %-inhibition, ABL(E255K) [3]: 2.49% | %-inhibition of EGFR [4]: 7% | %-inhibition of EGFR(L858R) [5]: 0.505% | %-inhibition of EGFR(T790M/L858R) [6]: 5% | %-inhibition of EGFR(L861Q) [7]: 5% | %-inhibition of EGFR(T790M) [8]: -5.57% | %-inhibition of YES(T348I) [9]: 4% | %-inhibition of PDGFRβ [10]: 33% | %-inhibition of FGFR1(V561M) [11]: 5.37% | %-inhibition, BRAF [12]: 99% | %-inhibition of PKACγ [13]: -3% | %-inhibition of KDR [14]: 13% | %-inhibition, ALK(R1275Q) [15]: 3.57%

CNC(=O)c1cc(Oc2ccc(NC(=O)Nc3ccc(Cl)c(C(F)(F)F)c3)c(F)c2)ccn1 [regorafenib]
IC50 [1, 16]: 3.95 µM | IC50 [1, 17]: 3.01 µM | IC50 [1, 18]: 3.41 µM | IC50 [1, 19]: 2.92 µM | IC50 [1, 20]: 3.56 µM | IC50 [1, 21]: 8.73 µM | IC50 [1, 22]: 0.687 µM | IC50 [1, 23]: 16.6 µM | IC50 [1, 24]: 3.51 µM | IC50 [1, 25]: 4.17 µM | IC50 [1, 26]: 3.76 µM | IC50 [1, 27]: > 31.6 µM | IC50 [1, 28]: 9.66 µM | IC50 [1, 29]: 3.08 µM | IC50 [1, 30]: 3.27 µM | IC50 [1, 31]: 2.96 µM | IC50 [1, 32]: 10.7 µM | IC50 [1, 33]: 3.1 µM | IC50 [1, 34]: 11.8 µM | IC50 [1, 35]: 2.9 µM | IC50 [1, 36]: 7.29 µM | IC50 [1, 37]: 1.82 µM | IC50 [1, 38]: 5.84 µM | IC50 [1, 39]: 3.93 µM | IC50 [1, 40]: 4 µM | IC50 [1, 41]: 1.02 µM | IC50 [1, 42]: 1.54 µM | IC50 [1, 43]: 9.54 µM | IC50 [1, 44]: 3.54 µM | IC50 [1, 45]: 1.62 µM | IC50 [1, 46]: 3.15 µM | IC50 [1, 47]: 22.6 µM | IC50 [1, 48]: 2.52 µM | IC50 [1, 49]: 2.7 µM | IC50 [1, 50]: 3.63 µM | IC50 [1, 51]: 3.31 µM | IC50 [1, 52]: 30.8 µM | IC50 [1, 53]: 3.58 µM | IC50 [1, 54]: 3.95 µM | IC50 [1, 55]: 3.63 µM | IC50 [1, 56]: 5.88 µM | IC50 [1, 57]: 6.43 µM | IC50 [1, 58]: 1.01 µM | IC50 [1, 59]: > 31.6 µM | %-inhibition, ABL [2]: 68% | %-inhibition, ABL(E255K) [3]: 33% | %-inhibition of EGFR [4]: 12% | %-inhibition of EGFR(L858R) [5]: 2.24% | %-inhibition of EGFR(T790M/L858R) [6]: 1.68% | %-inhibition of EGFR(L861Q) [7]: 6% | %-inhibition of EGFR(T790M) [8]: -7.38% | %-inhibition of YES(T348I) [9]: 40% | %-inhibition of PKACγ [13]: -0.823% | %-inhibition of KDR [14]: 103% | %-inhibition, ALK(R1275Q) [15]: 5%
